# Values quoted from earlier work, collected in US20240237650A1, “AQUEOUS FUNGICIDE MIXTURE FORMULATION” (ADAMA MAKHTESHIM LTD., priority 2021, published 2024).
# Read-outs that look alike come from different tables or passages of the source.
# Conditions: 20° C.
compound,measurement,setting,value
"CO/C=C(/C(=O)OC)c1ccccc1Oc1cc(Oc2ccccc2C#N)ncn1 [azoxystrobin, methyl (E)-2-{2[6-(2-cyanophenoxy)pyrimidin-4-yloxy]phenyl}-3-methoxyacrylate]",solubility of azoxystrobin in water,pH 5.2 and 7.0,6.7 µg/mL
same,solubility of azoxystrobin in water,pH 9.2,5.9 µg/mL
